Source: ChEMBL document CHEMBL1201862, “PubChem BioAssay data set” (2004)
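In this assay, cells in 96-well plates receive the compound at five concentrations for 48 hours. Endpoints are linearly interpolated between the surrounding concentrations. Here, GI50 denotes the concentration required for 50% inhibition of growth.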 The source made the active and inactive calls. Rule as the data show it: active = GI50 up to about 1.1 µM and inactive = higher.

What was measured:
Assay in all cases: NCI tumour cell line growth inhibition, 48 h
UO-31 = system: UO-31
M14 = system: M14
UACC-257 = system: UACC-257
MDA-MB-231 = system: MDA-MB-231
786-0 = system: 786-0
CCRF-CEM = system: CCRF-CEM
MDA-N = system: MDA-N
NCI/ADR-RES = system: NCI/ADR-RES
OVCAR-5 = system: OVCAR-5
CAKI-1 = system: CAKI-1
OVCAR-4 = system: OVCAR-4
OVCAR-3 = system: OVCAR-3
MCF7 = system: MCF7
HOP-92 = system: HOP-92
SNB-75 = system: SNB-75
OVCAR-8 = system: OVCAR-8
T47D = system: T47D
BT-549 = system: BT-549

Measured: GI50

COc1ccc(C(=O)NCCC2CN(S(=O)(=O)C(F)(F)F)c3ccccc32)c(OC)c1 (stereo unspecified)
inactive: UO-31 43 µM | M14 35.1 µM | UACC-257 40.8 µM | MDA-MB-231 > 100 µM | 786-0 53 µM | CCRF-CEM 17.2 µM | MDA-N 33.2 µM | NCI/ADR-RES 23.1 µM | OVCAR-5 > 100 µM | CAKI-1 > 100 µM | OVCAR-4 69.3 µM | OVCAR-3 51.4 µM | MCF7 52.1 µM | HOP-92 61.4 µM

C=CCn1c(=O)c(Br)nn(CCOCP(=O)(OCC)OCC)c1=O
inactive: UO-31 > 100 µM | M14 > 100 µM | UACC-257 > 100 µM | MDA-MB-231 > 100 µM | CCRF-CEM > 100 µM | SNB-75 > 100 µM | MDA-N > 100 µM | OVCAR-8 > 100 µM | NCI/ADR-RES > 100 µM | OVCAR-5 > 100 µM | T47D > 100 µM | CAKI-1 > 100 µM | OVCAR-3 > 100 µM | MCF7 > 100 µM | HOP-92 > 100 µM

O=c1[nH]c(=O)n(C2OC(CO)C(O)C2O)cc1OCCCc1ccccc1 (stereo unspecified)
inactive: M14 > 100 µM | UACC-257 > 100 µM | MDA-MB-231 > 100 µM | 786-0 > 100 µM | CCRF-CEM > 100 µM | MDA-N > 100 µM | OVCAR-8 > 100 µM | NCI/ADR-RES > 100 µM | OVCAR-5 > 100 µM | T47D > 100 µM | CAKI-1 > 100 µM | OVCAR-4 > 100 µM | OVCAR-3 > 100 µM | MCF7 > 100 µM

Cc1ccc(S(=O)(=O)NCCCSCCSCCCN)cc1
inactive: UO-31 > 100 µM | M14 > 100 µM | UACC-257 > 100 µM | MDA-MB-231 > 100 µM | CCRF-CEM > 100 µM | SNB-75 > 100 µM | MDA-N > 100 µM | OVCAR-8 > 100 µM | NCI/ADR-RES > 100 µM | T47D > 100 µM | OVCAR-4 > 100 µM | OVCAR-3 > 100 µM | MCF7 > 100 µM | HOP-92 > 100 µM

C=CC1(c2ccc(Br)cc2)OCCCO1
inactive: UO-31 > 100 µM | M14 > 100 µM | UACC-257 > 100 µM | MDA-MB-231 > 100 µM | 786-0 > 100 µM | CCRF-CEM > 100 µM | SNB-75 > 100 µM | MDA-N > 100 µM | OVCAR-8 > 100 µM | NCI/ADR-RES > 100 µM | OVCAR-5 > 100 µM | T47D > 100 µM | OVCAR-4 > 100 µM | OVCAR-3 > 100 µM | MCF7 > 100 µM | HOP-92 > 100 µM

Cc1ccc2nc(CN3CCCCC3)cc(=O)n2c1
inactive: UO-31 > 100 µM | M14 > 100 µM | UACC-257 > 100 µM | MDA-MB-231 > 100 µM | 786-0 > 100 µM | CCRF-CEM > 100 µM | SNB-75 > 100 µM | BT-549 > 100 µM | OVCAR-8 > 100 µM | NCI/ADR-RES > 100 µM | OVCAR-5 > 100 µM | CAKI-1 > 100 µM | OVCAR-4 > 100 µM | OVCAR-3 > 100 µM | MCF7 > 100 µM | HOP-92 > 100 µM

NCCC(=O)NC(Cc1c[nH]cn1)C(=O)O (stereo unspecified)
inactive: UO-31 > 100 µM | M14 > 100 µM | UACC-257 > 100 µM | MDA-MB-231 > 100 µM | 786-0 > 100 µM | CCRF-CEM > 100 µM | SNB-75 > 100 µM | MDA-N > 100 µM | OVCAR-8 > 100 µM | NCI/ADR-RES > 100 µM | OVCAR-5 > 100 µM | T47D > 100 µM | CAKI-1 > 100 µM | OVCAR-4 > 100 µM | OVCAR-3 > 100 µM | MCF7 > 100 µM | HOP-92 > 100 µM
